Assay results taken from US7851444B2 (priority 2002, dated 2010).

Test system: CCI rat
Details: in vivo

## CN1CC[C@]23c4c5ccc(O)c4O[C@H]2[C@@H](O)C=C[C@H]3[C@H]1C5 [morphine]
  antinociceptive effects in a rat model of neuropathic pain: produced antinociceptive effects
  duration of antinociceptive effects: 3 h
  selectivity of antinociceptive effects between paws: selective for the ipsilateral over the contralateral paw
